# From publication PMC11882969 (Nature Communications, 2025)
# Values joined by “and” are separate entries in the source; they are usually repeats but may differ in a detail not shown here. Equal entries are not always repeated.
# Legend:
# hCB1 = hCB1 (Homo sapiens, UniProt P21554); experiment: bioSensAll ebBRET signaling profiling, hCB1; format: cell-based; parameters: host or cells: HEK293SL cells, transient PEI transfection; details: for Gi1 hCB1 response: Gi1 biosensor; for Gi1 hCB1 / GoB hCB1: single replicate values, FigS6a
# CB1 (rCB1) = CB1 (rCB1) (Rattus norvegicus, UniProt P20272); experiment: Radioligand competition binding, [3H]-CP-55,940, rat brain membranes
# CB1 (rCB1), sequence (P20272 whole entry): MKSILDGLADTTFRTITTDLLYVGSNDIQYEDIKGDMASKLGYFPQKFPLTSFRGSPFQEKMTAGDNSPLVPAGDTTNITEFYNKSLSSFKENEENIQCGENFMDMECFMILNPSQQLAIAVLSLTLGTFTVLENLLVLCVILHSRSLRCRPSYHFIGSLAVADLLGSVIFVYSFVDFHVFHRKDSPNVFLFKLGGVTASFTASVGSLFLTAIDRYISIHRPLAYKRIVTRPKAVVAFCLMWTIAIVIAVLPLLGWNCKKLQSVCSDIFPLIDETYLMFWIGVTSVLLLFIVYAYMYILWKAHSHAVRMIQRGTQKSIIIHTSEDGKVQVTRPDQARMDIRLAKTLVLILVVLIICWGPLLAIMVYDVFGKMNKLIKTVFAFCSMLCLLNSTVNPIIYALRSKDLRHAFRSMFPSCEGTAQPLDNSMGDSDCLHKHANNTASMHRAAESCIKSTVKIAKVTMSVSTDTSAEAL
# hCB1, sequence (P21554 whole entry): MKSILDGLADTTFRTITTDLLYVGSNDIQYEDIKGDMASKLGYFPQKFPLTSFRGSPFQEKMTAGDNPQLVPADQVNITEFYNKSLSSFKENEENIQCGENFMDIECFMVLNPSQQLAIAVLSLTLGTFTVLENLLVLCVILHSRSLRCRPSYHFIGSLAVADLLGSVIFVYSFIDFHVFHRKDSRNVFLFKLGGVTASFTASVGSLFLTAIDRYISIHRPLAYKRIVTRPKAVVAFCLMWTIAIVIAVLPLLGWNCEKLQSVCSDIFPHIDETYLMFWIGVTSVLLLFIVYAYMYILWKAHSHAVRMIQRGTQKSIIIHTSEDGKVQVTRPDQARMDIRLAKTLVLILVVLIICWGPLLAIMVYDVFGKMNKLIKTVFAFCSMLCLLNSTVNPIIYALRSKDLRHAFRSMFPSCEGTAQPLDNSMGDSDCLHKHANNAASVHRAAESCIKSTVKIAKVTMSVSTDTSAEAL
compound,measurement,setting,value
Cc1cc(C(=O)N(C)C(c2ccco2)c2ccco2)nn1-c1cccc(C(F)(F)F)c1 [‘4388],Gi1 hCB1 response,hCB1; Log [Compound] (M) -4.22186,-4.018
same,Gi1 hCB1 response,hCB1; Log [Compound] (M) -4.63927,-19.2595
same,Gi1 hCB1 response,hCB1; Log [Compound] (M) -5.05788,-23.1763
same,Gi1 hCB1 response,hCB1; Log [Compound] (M) -5.47381,10.5525
same,Gi1 hCB1 response,hCB1; Log [Compound] (M) -5.89285,-11.6498
same,Gi1 hCB1 response,hCB1; Log [Compound] (M) -6.31878,-15.6337
same,Gi1 hCB1 response,hCB1; Log [Compound] (M) -6.72585,2.07
same,Gi1 hCB1 response,hCB1; Log [Compound] (M) -7.14267,5.942
same,Gi1 hCB1 response,hCB1; Log [Compound] (M) -7.55284,4.107
same,Gi1 hCB1 response,hCB1; Log [Compound] (M) -8,5.7853
same,Gi1 hCB1 response,hCB1; Log [Compound] (M) -8.22186,57.4864
same,Gi1 hCB1 response,hCB1; Log [Compound] (M) -8.39794,-7.509
same,Gi1 hCB1 response,hCB1; Log [Compound] (M) -8.68787,16.0808
same,Gi1 hCB1 response,hCB1; Log [Compound] (M) -9.15521,-3.346
same,Gi1 hCB1 response,hCB1; Log [Compound] (M) -9.61989,-13.3061
same,Gi1 hCB1 response,hCB1; Log [Compound] (M) -10.0969,-9.456
same,Gi1 hCB1 response,hCB1; Log [Compound] (M) -10.5529,6.658
same,Gi1 hCB1 response,hCB1; Log [Compound] (M) -11.0177,9.836
same,Gi1 hCB1 response,hCB1; Log [Compound] (M) -11.4949,13.8426
same,Gi1 hCB1 response,hCB1; Log [Compound] (M) -11.9208,7.912
same,Gi1 hCB1 response,hCB1; Log [Compound] (M) -12.3979,17.8713
same,Gi1 hCB1 response,hCB1; Log [Compound] (M) -12.8861,0.7271
same,Gi1 hCB1 response,"hCB1; Log [Compound] (M) -13, individual replicate values",-6.01 and 6.502
same,Gi1 hCB1,hCB1; Log [Compound] (M) -4.22186,-1.453
same,GoB hCB1,hCB1; Log [Compound] (M) -4.22186,-21.3927
same,Gi1 hCB1,hCB1; Log [Compound] (M) -4.63927,-2.47
same,GoB hCB1,hCB1; Log [Compound] (M) -4.63927,-23.227
same,Gi1 hCB1,hCB1; Log [Compound] (M) -5.05788,-11.3501
same,GoB hCB1,hCB1; Log [Compound] (M) -5.05788,-26.2122
same,Gi1 hCB1,hCB1; Log [Compound] (M) -5.47381,-11.1959
same,GoB hCB1,hCB1; Log [Compound] (M) -5.47381,-26.6258
same,Gi1 hCB1,hCB1; Log [Compound] (M) -5.89285,-9.5
same,GoB hCB1,hCB1; Log [Compound] (M) -5.89285,-20.8711
same,Gi1 hCB1,hCB1; Log [Compound] (M) -6.31878,-8.93
same,GoB hCB1,hCB1; Log [Compound] (M) -6.31878,-17.76
same,Gi1 hCB1,hCB1; Log [Compound] (M) -6.72585,-4.983
same,GoB hCB1,hCB1; Log [Compound] (M) -6.72585,-9.883
same,Gi1 hCB1,hCB1; Log [Compound] (M) -7.14267,0.7674
same,GoB hCB1,hCB1; Log [Compound] (M) -7.14267,-5.046
same,Gi1 hCB1,hCB1; Log [Compound] (M) -7.55284,2.355
same,GoB hCB1,hCB1; Log [Compound] (M) -7.55284,0.4032
same,Gi1 hCB1,hCB1; Log [Compound] (M) -8,1.985
same,GoB hCB1,hCB1; Log [Compound] (M) -8,-1.107
same,Gi1 hCB1,hCB1; Log [Compound] (M) -8.22186,1.292
same,GoB hCB1,hCB1; Log [Compound] (M) -8.22186,-1.989
same,Gi1 hCB1,hCB1; Log [Compound] (M) -8.39794,1.677
same,GoB hCB1,hCB1; Log [Compound] (M) -8.39794,0.9427
same,Gi1 hCB1,hCB1; Log [Compound] (M) -8.68787,1.23
same,GoB hCB1,hCB1; Log [Compound] (M) -8.68787,-0.8377
same,Gi1 hCB1,hCB1; Log [Compound] (M) -9.15521,0.9215
same,GoB hCB1,hCB1; Log [Compound] (M) -9.15521,-0.8737
same,Gi1 hCB1,hCB1; Log [Compound] (M) -9.61989,0.08902
same,GoB hCB1,hCB1; Log [Compound] (M) -9.61989,-0.7118
same,Gi1 hCB1,hCB1; Log [Compound] (M) -10.0969,1.816
same,GoB hCB1,hCB1; Log [Compound] (M) -10.0969,-0.7298
same,Gi1 hCB1,hCB1; Log [Compound] (M) -10.5529,1.122
same,GoB hCB1,hCB1; Log [Compound] (M) -10.5529,-2.258
same,Gi1 hCB1,hCB1; Log [Compound] (M) -11.0177,1.6
same,GoB hCB1,hCB1; Log [Compound] (M) -11.0177,0.6549
same,Gi1 hCB1,hCB1; Log [Compound] (M) -11.4949,2.232
same,GoB hCB1,hCB1; Log [Compound] (M) -11.4949,-1.305
same,Gi1 hCB1,hCB1; Log [Compound] (M) -11.9208,2.186
same,GoB hCB1,hCB1; Log [Compound] (M) -11.9208,-1.089
same,Gi1 hCB1,hCB1; Log [Compound] (M) -12.3979,1.137
same,GoB hCB1,hCB1; Log [Compound] (M) -12.3979,-1.305
same,Gi1 hCB1,hCB1; Log [Compound] (M) -12.8861,1.415
same,GoB hCB1,hCB1; Log [Compound] (M) -12.8861,-0.9816
same,Gi1 hCB1,hCB1; Log [Compound] (M) -13,2.1086 and 2.987
same,GoB hCB1,hCB1; Log [Compound] (M) -13,0.8707 and 0.2953
same,pKi [95% CI],CB1 (rCB1); rCB1,5.9 [5.7 – 6.0]
same,Ki,"CB1 (rCB1); read-out: Ki [95% CI], rCB1, [3H]-CP-55,940",1360 nM
